The record followed here is patent publication US9351978B2, “Neurogenesis screening method and uses thereof” (Mead Johnson Nutrition Company, priority 2012, dated 2016).

One assay deals with hADSCs. As to the kind of experiment: neurogenesis of hADSCs, neuronal morphology under phase contrast microscopy. The format is cell-based, human. Here is the method:
hADSCs were purchased from Invitrogen, also known as Life Technologies, of Carlsbad, Calif., U.S.A., and were cultured as near confluent monolayers in 100 mm culture plates within a maintenance media consisting of Complete MesenPro RS medium with growth supplement and L-glutamine obtained from Invitrogen®. The process of culturing, passage, and seeding the hADSCs is described below.
The subculture of hADSCs was performed when cell culture reached confluence. To passage hADSCs, the following procedure is used: i) aspirate the Complete MesenPRO RS medium from the cells; ii) rinse the surface area of the cell layer with Dulbecco's phosphate buffered saline (DBPS) buffer by adding the DPBS to the side of the vessel opposite the attached cell layer and rocking the vessel back and forth several times; iii) remove the DPBS by aspiration and discard; iv) detach the cells by adding a sufficient volume of pre-warmed trypsin-EDTA solution without phenol red to cover the cell layer; v) incubate at 37° C. for approximately 7 minutes; vi) observe the cells under a microscope to determine if additional incubation is needed; vii) add 3 mL of the maintenance media to the plate, mix the cell suspension, add the suspension to a 15 mL centrifuge tube and centrifuge at 210 g for 5 minutes; viii) determine the total number of cells and percent viability using a hemacytometer; ix) add Complete MesenPRO RS medium to each vessel so that the final culture volume is 0.2 mL-0.5 mL per cm^2; x) seed the cells by adding the appropriate volume of cells to each vessel and incubate at 37° C., 5% CO2 and 90% humidity; and xi) three or four days after seeding, completely remove the medium and replace with an equal volume of Complete MesenPRO RS medium.
Before seeding the passaged hADSCs on fresh culture plates, the surfaces of the culture ware are washed with sterile DPBS solution three times, followed by multiple rinses with sterile water. The first layer of coating is poly-L-ornithine. […]

The next assay deals with hNSCs. As to the kind of experiment: neurogenesis of hNSCs, morphological changes under inverted fluorescent microscopy. The format is cell-based, human. Conditions: 72 hours. The protocol:
Briefly, hNSCs were purchased from Millipore, Bellerica, Mass., U.S.A., with genetic modification to constitutively express green fluorescent protein (“GFP”). The hNSCs were cultured on laminin coated plates as recommended by the manufacturer. Both laminin and DEME/F12 were obtained from Millipore. Laminin was diluted with DMEM/F12 to 20 μg/mL. 10 ml of diluted laminin solution was added to 10 cm tissue culture dish. Then the culture dish was incubated in a 37° C., 5% CO2 incubator overnight. Just before use, the laminin solution was aspirated and rinsed once with sterile DPBS solution. hNSCs were cultured in the ReNcell NSC maintenance medium (Millipore) supplied with 20 ng/mL bFGF and 20 ng/mL EGF in a 37° C., 5% CO2 incubator. Medium was exchanged with fresh medium containing bFGF and EGF every other day thereafter. The cells reached 80% confluence 2 to 3 days after this step.
After hNSCs reach 80% confluence, hNSCs were ready for the differentiation experiment. Before seeding, a 96-well plate was freshly coated with 20 μg/mL laminin solution followed by a brief DPBS rinse as described above. Culture medium was removed carefully and hNSCs were dissociated within 3 ml Accutase (Millipore) in a 37° C., 5% CO2 incubator for 3 minutes. Then 5 ml of ReNcell NSC maintenance medium (Millipore) supplied with 20 ng/mL bFGF and 20 ng/mL EGF were added. The cell suspension was then transferred a sterile 15 ml conical tube and the cells were pelleted by the centrifugation at 300×g for 5 minutes. Supernatant was removed. 2 ml medium was then applied to the tube and hNSCs was resuspended thoroughly. The hNSCs were seeded on a 96-well plate at a density of 1×10^4 cell/ml (1000 cells/well, 100 μl/well).
After attaching to the culture surface, the culture medium was switched to serum-free differentiation medium in the presence of cholesterol, or DHA, or no treatment. […]

Turning to `CC(C)CCC[C@@H](C)[C@H]1CC[C@H]2[C@@H]3CC=C4C[C@@H](O)CC[C@]4(C)[C@H]3CC[C@]12C` [cholesterol], the “effect to enhance neurogenesis (neuronal morphology displayed by the hADSCs)” value with hADSCs (5 μM, among the concentrations tested, phase contrast microscopy at 24, 48 and 96 hours, FIG. 2B) is “strongest effect to enhance neurogenesis”. The “neurogenesis compared to the negative control” value in the assay on hADSCs (addition of cholesterol vs no treatment) is “promoted neurogenesis when compared to the negative control”. Moreover, the “morphology of treated hADSCs (outgrowth)” value with hADSCs (hADSCs treated with cholesterol, FIG. 2B) is given as “long outgrowth with some branching”. Also, the “morphology of hNSCs observed” value with hNSCs (25 μM) was “shrinking cellular bodies, projecting neurities and were developing dendrites”. In the assay on hNSCs (25 μM, serum-free differentiation medium), the “neurogenesis of hNSCs compared to no treatment” value is given as “dramatically promoted neurogenesis”. Also, the “length of neurite outgrowth” value in the assay with hNSCs (cholesterol 25 μM compared with DHA at 20 μM) is listed as “comparable to DHA”.
